Laboratory results: patent US11117892B2, “Pyrrolo-pyridine derivative compound, method for preparing same, and pharmaceutical composition containing same as active ingredient for prevention or treatment of protein kinase-related diseases” (DAEGU-GYEONGBUK MEDICAL INNOVATION FOUNDATION, priority 2017, dated 2021)

What was measured:
Assay in all cases: scanMAX Kinase assay panel
Assay type in all cases: binding
Conditions in all cases: read-out: % control
[1] = target: CSF1R (Homo sapiens (Human), UniProt P07333)
Procedure, shortened: (§1)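 Measurements came from scanMAX kinase selectivity profiling. Each value was normalised by subtracting the positive control and dividing by the span between the DMSO vehicle and the positive control, then multiplied by 100.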

[2] = target: ULK3 (Homo sapiens (Human), UniProt Q6PHR2)
Procedure, shortened: as §1

[3] = target: HUNK (Homo sapiens (Human), UniProt P57058)
Procedure, shortened: as §1

[4] = target: p38-gamma (Homo sapiens (Human), UniProt P53778)
Procedure, shortened: as §1

[5] = target: PIP5K2B (Homo sapiens (Human), UniProt P78356)
Procedure, shortened: as §1

[6] = target: KIT(L576P) (Homo sapiens (Human), UniProt P10721, L576P)
Procedure, shortened: as §1

[7] = target: CSNK1G3 (Homo sapiens (Human), UniProt Q9Y6M4)
Procedure, shortened: as §1

[8] = target: EGFR(G719C) (Homo sapiens (Human), UniProt P00533, G719C)
Procedure, shortened: as §1

[9] = target: TYK2(JH1domain-catalytic) (Homo sapiens (Human), UniProt P29597)
Procedure, shortened: as §1

[10] = target: SGK2 (Homo sapiens (Human), UniProt Q9HBY8)
Procedure, shortened: as §1

[11] = target: RET (Homo sapiens (Human), UniProt P07949)
Procedure, shortened: as §1

[12] = target: MERTK (Homo sapiens (Human), UniProt Q12866)
Procedure, shortened: as §1

[13] = target: S6K1 (Homo sapiens (Human), UniProt P23443)
Procedure, shortened: as §1

[14] = target: NEK6 (Homo sapiens (Human), UniProt Q9HC98)
Procedure, shortened: as §1

[15] = target: ADCK3 (Homo sapiens (Human), UniProt Q8NI60)
Procedure, shortened: as §1

[16] = target: KIT-autoinhibited (Homo sapiens (Human), UniProt P10721)
Procedure, shortened: as §1

[17] = target: PFTK1 (Homo sapiens (Human), UniProt O94921)
Procedure, shortened: as §1

[18] = target: CSNK2A1 (Homo sapiens (Human), UniProt P68400)
Procedure, shortened: as §1

[19] = target: DMPK (Homo sapiens (Human), UniProt Q09013)
Procedure, shortened: as §1

[20] = target: PRKG1 (Homo sapiens (Human), UniProt Q13976)
Procedure, shortened: as §1

[21] = target: BUB1 (Homo sapiens (Human), UniProt O43683)
Procedure, shortened: as §1

[22] = target: MKK7 (Homo sapiens (Human), UniProt O14733)
Procedure, shortened: as §1

[23] = target: SIK2 (Homo sapiens (Human), UniProt Q9H0K1)
Procedure, shortened: as §1

[24] = target: SgK110 (Homo sapiens (Human), UniProt P0C264)
Procedure, shortened: as §1

[25] = target: NEK3 (Homo sapiens (Human), UniProt P51956)
Procedure, shortened: as §1

[26] = target: ALK (Homo sapiens (Human), UniProt Q9UM73)
Procedure, shortened: as §1

[27] = target: AURKC (Homo sapiens (Human), UniProt Q9UQB9)
Procedure, shortened: as §1

[28] = target: CSK (Homo sapiens (Human), UniProt P41240)
Procedure, shortened: as §1

[29] = target: TLK2 (Homo sapiens (Human), UniProt Q86UE8)
Procedure, shortened: as §1

[30] = target: PRKG2 (Homo sapiens (Human), UniProt Q13237)
Procedure, shortened: as §1

[31] = target: ABL1(Q252H)-nonphosphorylated (Homo sapiens (Human), UniProt P00519, Q252H)
Procedure, shortened: as §1

[32] = target: MST4 (Homo sapiens (Human), UniProt Q9P289)
Procedure, shortened: as §1

[33] = target: LRRK2(G2019S) (Homo sapiens (Human), UniProt Q5S007, G2019S)
Procedure, shortened: as §1

[34] = target: NEK4 (Homo sapiens (Human), UniProt P51957)
Procedure, shortened: as §1

[35] = target: p38-delta (Homo sapiens (Human), UniProt O15264)
Procedure, shortened: as §1

[36] = target: HIPK4 (Homo sapiens (Human), UniProt Q8NE63)
Procedure, shortened: as §1

[37] = target: CDK9 (Homo sapiens (Human), UniProt P50750)
Procedure, shortened: as §1

[38] = target: ERK2 (Homo sapiens (Human), UniProt P28482)
Procedure, shortened: as §1

[39] = target: CDK4 (Homo sapiens (Human), UniProt P11802)
Procedure, shortened: as §1

Sequence of CSNK1G3 (Q9Y6M4 whole entry): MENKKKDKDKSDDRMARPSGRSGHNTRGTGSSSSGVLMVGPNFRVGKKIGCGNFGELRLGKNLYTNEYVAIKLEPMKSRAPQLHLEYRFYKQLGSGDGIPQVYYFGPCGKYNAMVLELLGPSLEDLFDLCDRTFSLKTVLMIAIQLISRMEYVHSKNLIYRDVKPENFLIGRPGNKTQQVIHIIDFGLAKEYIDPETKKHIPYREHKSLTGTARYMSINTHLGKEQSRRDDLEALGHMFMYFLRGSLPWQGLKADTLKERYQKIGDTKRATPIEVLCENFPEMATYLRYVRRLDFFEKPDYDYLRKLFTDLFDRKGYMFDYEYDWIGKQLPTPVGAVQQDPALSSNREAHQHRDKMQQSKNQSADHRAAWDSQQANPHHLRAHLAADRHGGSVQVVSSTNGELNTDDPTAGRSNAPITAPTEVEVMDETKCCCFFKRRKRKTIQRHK
Sequence of PRKG1 (Q13976 whole entry): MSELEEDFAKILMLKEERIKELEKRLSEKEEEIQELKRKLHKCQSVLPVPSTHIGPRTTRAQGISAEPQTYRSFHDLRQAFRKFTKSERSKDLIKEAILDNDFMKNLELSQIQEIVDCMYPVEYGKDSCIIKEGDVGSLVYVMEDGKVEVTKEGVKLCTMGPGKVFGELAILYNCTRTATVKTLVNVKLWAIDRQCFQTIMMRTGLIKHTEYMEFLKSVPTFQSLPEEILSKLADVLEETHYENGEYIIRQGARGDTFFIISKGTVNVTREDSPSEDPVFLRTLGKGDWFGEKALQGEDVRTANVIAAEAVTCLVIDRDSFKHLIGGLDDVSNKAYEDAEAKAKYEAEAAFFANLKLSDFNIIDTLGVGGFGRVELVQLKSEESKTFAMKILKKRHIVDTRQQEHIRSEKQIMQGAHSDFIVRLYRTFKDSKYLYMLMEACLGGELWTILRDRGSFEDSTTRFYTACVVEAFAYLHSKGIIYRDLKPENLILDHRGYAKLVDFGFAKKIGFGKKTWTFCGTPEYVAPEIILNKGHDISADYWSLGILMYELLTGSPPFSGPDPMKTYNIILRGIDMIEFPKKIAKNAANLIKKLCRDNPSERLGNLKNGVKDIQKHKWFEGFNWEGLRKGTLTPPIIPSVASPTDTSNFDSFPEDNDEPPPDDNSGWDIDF
Sequence of TLK2 (Q86UE8 whole entry): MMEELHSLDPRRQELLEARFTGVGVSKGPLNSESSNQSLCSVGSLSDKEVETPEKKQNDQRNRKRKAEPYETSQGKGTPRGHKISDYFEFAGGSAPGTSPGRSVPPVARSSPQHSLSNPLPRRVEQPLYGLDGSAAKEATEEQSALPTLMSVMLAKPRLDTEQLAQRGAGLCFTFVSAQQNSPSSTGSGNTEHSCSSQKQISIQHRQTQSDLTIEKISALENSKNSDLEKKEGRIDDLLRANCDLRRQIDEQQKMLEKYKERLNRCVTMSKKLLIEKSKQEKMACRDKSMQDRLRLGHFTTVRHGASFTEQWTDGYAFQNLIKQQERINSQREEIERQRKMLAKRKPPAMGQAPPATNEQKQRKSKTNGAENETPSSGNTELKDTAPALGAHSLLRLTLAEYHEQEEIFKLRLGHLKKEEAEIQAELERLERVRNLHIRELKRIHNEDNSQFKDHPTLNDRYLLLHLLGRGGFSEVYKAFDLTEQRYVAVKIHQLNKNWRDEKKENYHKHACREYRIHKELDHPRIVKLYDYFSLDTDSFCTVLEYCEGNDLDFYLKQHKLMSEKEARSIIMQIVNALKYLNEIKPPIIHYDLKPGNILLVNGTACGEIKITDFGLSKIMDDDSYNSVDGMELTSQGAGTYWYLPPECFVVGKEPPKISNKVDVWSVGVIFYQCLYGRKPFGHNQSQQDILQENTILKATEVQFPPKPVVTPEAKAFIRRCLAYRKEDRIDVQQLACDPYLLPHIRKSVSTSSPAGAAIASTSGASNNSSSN
Sequence of LRRK2(G2019S) (Q5S007 whole entry G2019S): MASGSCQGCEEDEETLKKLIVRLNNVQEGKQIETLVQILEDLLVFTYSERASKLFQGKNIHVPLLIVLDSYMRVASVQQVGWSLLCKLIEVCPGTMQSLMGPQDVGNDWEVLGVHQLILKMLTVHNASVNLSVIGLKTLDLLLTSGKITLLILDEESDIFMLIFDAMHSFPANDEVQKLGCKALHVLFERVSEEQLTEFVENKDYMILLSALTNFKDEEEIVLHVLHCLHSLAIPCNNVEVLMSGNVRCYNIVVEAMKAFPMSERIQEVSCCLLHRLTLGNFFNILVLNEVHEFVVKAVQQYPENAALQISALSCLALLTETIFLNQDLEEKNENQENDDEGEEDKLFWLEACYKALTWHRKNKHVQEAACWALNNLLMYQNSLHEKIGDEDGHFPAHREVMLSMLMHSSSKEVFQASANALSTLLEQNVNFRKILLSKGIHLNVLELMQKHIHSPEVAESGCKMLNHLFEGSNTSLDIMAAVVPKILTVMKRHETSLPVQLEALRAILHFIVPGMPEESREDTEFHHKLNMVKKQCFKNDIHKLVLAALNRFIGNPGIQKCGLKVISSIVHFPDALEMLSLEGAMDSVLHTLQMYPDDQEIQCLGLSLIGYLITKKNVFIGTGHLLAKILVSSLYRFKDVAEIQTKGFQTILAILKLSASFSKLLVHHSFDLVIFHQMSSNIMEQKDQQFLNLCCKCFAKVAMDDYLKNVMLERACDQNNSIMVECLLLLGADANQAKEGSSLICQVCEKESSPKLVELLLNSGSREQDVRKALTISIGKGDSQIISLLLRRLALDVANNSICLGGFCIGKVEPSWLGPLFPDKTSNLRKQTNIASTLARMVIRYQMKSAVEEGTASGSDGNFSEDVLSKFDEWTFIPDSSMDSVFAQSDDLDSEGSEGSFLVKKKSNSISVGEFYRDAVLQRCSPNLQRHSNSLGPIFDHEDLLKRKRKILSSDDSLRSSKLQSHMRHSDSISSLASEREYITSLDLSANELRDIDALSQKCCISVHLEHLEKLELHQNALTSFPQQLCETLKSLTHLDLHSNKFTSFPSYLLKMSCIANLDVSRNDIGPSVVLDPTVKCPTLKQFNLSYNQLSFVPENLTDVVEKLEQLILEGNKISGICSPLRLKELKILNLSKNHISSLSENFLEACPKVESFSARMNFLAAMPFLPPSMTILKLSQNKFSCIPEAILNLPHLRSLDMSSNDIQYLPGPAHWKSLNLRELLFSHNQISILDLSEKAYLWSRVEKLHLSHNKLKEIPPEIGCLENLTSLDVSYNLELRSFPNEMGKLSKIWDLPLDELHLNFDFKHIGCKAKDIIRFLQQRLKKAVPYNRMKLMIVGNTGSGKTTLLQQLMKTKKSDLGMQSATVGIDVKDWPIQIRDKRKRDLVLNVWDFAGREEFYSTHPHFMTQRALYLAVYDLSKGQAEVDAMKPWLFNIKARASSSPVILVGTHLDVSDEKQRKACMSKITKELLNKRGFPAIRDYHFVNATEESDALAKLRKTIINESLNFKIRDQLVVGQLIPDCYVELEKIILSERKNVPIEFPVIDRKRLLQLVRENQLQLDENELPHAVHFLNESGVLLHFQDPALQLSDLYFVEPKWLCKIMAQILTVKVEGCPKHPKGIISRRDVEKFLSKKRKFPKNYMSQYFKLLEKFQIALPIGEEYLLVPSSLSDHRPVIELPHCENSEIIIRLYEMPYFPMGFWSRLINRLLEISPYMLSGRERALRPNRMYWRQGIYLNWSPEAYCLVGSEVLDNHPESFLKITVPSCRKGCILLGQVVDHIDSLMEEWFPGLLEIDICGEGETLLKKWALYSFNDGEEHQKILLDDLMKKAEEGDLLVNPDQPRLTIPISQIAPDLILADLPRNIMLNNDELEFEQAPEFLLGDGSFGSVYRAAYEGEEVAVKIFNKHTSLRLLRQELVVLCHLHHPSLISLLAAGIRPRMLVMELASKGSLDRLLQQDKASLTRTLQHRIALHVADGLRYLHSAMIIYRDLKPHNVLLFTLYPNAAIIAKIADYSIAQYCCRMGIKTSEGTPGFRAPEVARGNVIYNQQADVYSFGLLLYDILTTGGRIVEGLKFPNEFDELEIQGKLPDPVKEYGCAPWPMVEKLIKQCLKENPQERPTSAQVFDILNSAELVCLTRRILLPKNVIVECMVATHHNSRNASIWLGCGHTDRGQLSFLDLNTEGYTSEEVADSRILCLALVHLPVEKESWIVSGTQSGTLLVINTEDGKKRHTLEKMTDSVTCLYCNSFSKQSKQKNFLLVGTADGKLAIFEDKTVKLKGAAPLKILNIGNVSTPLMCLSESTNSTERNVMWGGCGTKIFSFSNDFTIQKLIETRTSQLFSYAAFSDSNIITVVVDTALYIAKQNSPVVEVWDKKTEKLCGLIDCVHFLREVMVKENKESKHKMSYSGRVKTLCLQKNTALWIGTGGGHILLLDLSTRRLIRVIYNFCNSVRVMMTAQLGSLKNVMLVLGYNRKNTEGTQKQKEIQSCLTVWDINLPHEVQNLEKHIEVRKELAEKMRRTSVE
Sequence of S6K1 (P23443 whole entry): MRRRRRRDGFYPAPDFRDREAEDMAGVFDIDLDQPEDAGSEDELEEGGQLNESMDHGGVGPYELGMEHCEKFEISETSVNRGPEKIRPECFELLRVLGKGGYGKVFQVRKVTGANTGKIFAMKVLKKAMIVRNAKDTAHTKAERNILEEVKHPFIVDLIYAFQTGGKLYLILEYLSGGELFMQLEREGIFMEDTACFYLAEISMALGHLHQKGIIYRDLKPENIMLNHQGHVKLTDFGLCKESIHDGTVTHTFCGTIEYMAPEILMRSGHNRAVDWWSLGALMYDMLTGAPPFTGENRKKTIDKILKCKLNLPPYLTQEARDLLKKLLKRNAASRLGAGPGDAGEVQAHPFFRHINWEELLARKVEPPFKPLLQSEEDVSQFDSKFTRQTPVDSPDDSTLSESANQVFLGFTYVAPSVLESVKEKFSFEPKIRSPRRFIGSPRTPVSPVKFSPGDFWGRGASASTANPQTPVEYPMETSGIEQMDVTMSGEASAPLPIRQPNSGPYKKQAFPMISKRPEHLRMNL

Compound	remaining binding at 1 µM [1]	remaining binding at 1 µM [2]	remaining binding at 1 µM [3]	remaining binding at 1 µM [4]	remaining binding at 1 µM [5]	remaining binding at 1 µM [6]	remaining binding at 1 µM [7]	remaining binding at 1 µM [8]	remaining binding at 1 µM [9]	remaining binding at 1 µM [10]	remaining binding at 1 µM [11]	remaining binding at 1 µM [12]	remaining binding at 1 µM [13]	remaining binding at 1 µM [14]	remaining binding at 1 µM [15]	remaining binding at 1 µM [16]	remaining binding at 1 µM [17]	remaining binding at 1 µM [18]	remaining binding at 1 µM [19]	remaining binding at 1 µM [20]	further results
CCNc1cc(Nc2ccc(C(=O)N3CCC(N4CCOCC4)CC3)cc2OC)nc2[nH]cc(C#N)c12 [Example 18, 4-(ethylamino)-6-((2-methoxy-4-(4-morpholinopiperidine-1-carbonyl)phenyl)amino)-1H-pyrrolo[2,3-b]pyridine-3-carbonitrile]	73%	95%	57%	77%	87%	77%	7.1%	95%	59%	64%	100%	100%	70%	97%	86%	66%	89%	83%	81%	64%	remaining binding at 1 µM [21]: 76%; remaining binding at 1 µM [22]: 89%; remaining binding at 1 µM [23]: 87%; remaining binding at 1 µM [24]: 100%; remaining binding at 1 µM [25]: 87%; remaining binding at 1 µM [26]: 2.7%; remaining binding at 1 µM [27]: 92%; remaining binding at 1 µM [28]: 93%; remaining binding at 1 µM [29]: 98%; remaining binding at 1 µM [30]: 58%; remaining binding at 1 µM [31]: 95%; remaining binding at 1 µM [32]: 81%; remaining binding at 1 µM [33]: 0.6%; remaining binding at 1 µM [34]: 86%; remaining binding at 1 µM [35]: 99%; remaining binding at 1 µM [36]: 100%; remaining binding at 1 µM [37]: 100%; remaining binding at 1 µM [38]: 94%; remaining binding at 1 µM [39]: 100%
CCNc1cc(Nc2ccc(C(=O)N3CCC(N4CCOCC4)CC3)cc2OC)nc2[nH]cc(C(F)(F)F)c12 [Example 57, (4-((4-(ethylamino)-3-(trifluoromethyl)-1H-pyrrolo[2,3-b]pyridin-6-yl)amino)-3-methoxyphenyl) (4-morpholinopiperidin-1-yl)methanone]	72%	83%	51%	77%	100%	100%	89%	91%	100%	100%	100%	91%	100%	84%	89%	100%	95%	100%	100%	98%	remaining binding at 1 µM [21]: 99%; remaining binding at 1 µM [22]: 93%; remaining binding at 1 µM [23]: 95%; remaining binding at 1 µM [24]: 96%; remaining binding at 1 µM [25]: 93%; remaining binding at 1 µM [26]: 2.5%; remaining binding at 1 µM [27]: 95%; remaining binding at 1 µM [28]: 76%; remaining binding at 1 µM [29]: 88%; remaining binding at 1 µM [30]: 85%; remaining binding at 1 µM [31]: 54%; remaining binding at 1 µM [32]: 100%; remaining binding at 1 µM [33]: 27%; remaining binding at 1 µM [34]: 99%; remaining binding at 1 µM [35]: 85%; remaining binding at 1 µM [36]: 86%; remaining binding at 1 µM [37]: 85%; remaining binding at 1 µM [38]: 74%; remaining binding at 1 µM [39]: 100%
